Patent publication US20260042755A1, “GPR6 INVERSE AGONISTS” (MapLight Therapeutics, Inc., priority 2022, published 2026)

How the values were obtained:
[1] = target: T1, GPR6 (Homo sapiens, UniProt P46095); experiment: GPR6 antagonist functional cAMP assay (LANCE Ultra cAMP TR-FRET, CHO cells stably expressing GPR6); type: cell-based
T1 construct: expressed in transfected cells; host or cells: CHO cells
Outline: (§1)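 Read-out was TR-FRET cAMP signal at 665 nm after 1 h at room temperature, following 45 min compound exposure at 37 °C. Assay buffer contained 0.1% BSA and 150 μM Ro 20-1724. Antagonist IC50s were fitted with a 4-parameter logistic against DMSO and reference controls.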

[2] = target: T2, GPR3 (Homo sapiens, UniProt P46089); experiment: GPR3 antagonist functional cAMP assay (LANCE Ultra cAMP TR-FRET, CHO cells stably expressing GPR3); type: cell-based
T2 construct: expressed in transfected cells; host or cells: CHO cells
Outline: as §1

[3] = CHO cells stably expressing GPR6, cAMP assay (Example 24)
[4] = CHO cells stably expressing GPR3, cAMP assay (Example 24)
[5] = procedure as described in Example 24

T1 sequence (P46095 whole entry): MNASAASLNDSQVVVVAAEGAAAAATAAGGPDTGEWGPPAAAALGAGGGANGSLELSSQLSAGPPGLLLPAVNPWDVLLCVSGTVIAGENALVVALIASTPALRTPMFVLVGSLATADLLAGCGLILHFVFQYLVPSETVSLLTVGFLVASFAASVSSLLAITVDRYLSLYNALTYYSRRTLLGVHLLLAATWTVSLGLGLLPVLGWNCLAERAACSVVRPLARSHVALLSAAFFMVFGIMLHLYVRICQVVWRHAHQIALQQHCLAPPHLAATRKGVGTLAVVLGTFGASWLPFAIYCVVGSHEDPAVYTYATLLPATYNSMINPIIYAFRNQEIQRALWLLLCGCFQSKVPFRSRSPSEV
T2 sequence (P46089 whole entry, species assumed): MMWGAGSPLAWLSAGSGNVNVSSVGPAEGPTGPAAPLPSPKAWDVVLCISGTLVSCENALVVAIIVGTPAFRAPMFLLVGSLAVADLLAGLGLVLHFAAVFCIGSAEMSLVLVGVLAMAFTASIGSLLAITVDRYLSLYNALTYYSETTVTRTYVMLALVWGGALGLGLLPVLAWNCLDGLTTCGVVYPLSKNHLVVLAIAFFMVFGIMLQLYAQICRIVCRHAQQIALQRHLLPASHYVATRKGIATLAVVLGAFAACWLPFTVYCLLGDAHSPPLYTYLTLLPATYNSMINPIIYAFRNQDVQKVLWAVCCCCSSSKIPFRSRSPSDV

| SMILES | IC50 [1, 3] | IC50 [2, 4] | IC50 ([1]; procedure of Example 24) | IC50 ([2]; procedure of Example 24) | further results |
| --- | --- | --- | --- | --- | --- |
| COC(=O)N1CCc2nc(N3CCC(Oc4ccc(F)cc4F)CC3)c(-c3cnn(C4CCCCO4)c3)nc2C1 (stereo not drawn) [Compound 125, methyl 2-[4-(2,4-difluorophenoxy)piperidin-1-yl]-3-[1-(oxan-2-yl)-1H-pyrazol-4-yl]-5H,6H,7H,8H-pyrido[3,4-b]pyrazine-6-carboxylate] | 0.1 to 1 µM | 1 to 30 µM | – | – | – |
| COC(CO)c1cc2nc(N3CCC(Oc4ccc(F)cc4F)CC3)c(-c3cnn(C)c3)nc2cn1 (stereo not drawn) [Compound 438, 2-(2-(4-(2,4-difluorophenoxy)piperidin-1-yl)-3-(1-methyl-1H-pyrazol-4-yl)pyrido[3,4-b]pyrazin-7-yl)-2-methoxyethan-1-ol] | 0.1 to 1 µM | 1 to 30 µM | – | – | – |
| Cc1nccc2nc(N3CCC(Oc4ccc(F)cc4F)CC3)c(-c3cnn(C)c3)nc12 [Compound 487, 4-(2,4-difluorophenoxy)-1-[5-methyl-3-(1-methyl-1H-pyrazol-4-yl)pyrido[3,4-b]pyrazin-2-yl]piperidine] | < 0.1 µM | 1 to 30 µM | – | – | – |
| CC(C)(O)C(O)c1cc2nc(-c3cnn(CF)c3)c(N3CCN(Cc4cc(F)ccc4F)CC3)nc2cn1 (single isomer, unassigned) [Compound 723] | – | – | 0.1 to 1 µM | 1 to 30 µM | – |
| COCC(O)c1cc2nc(N3CCN(Cc4ccc(F)cc4F)CC3)c(-c3cnn(C(F)F)c3)nc2cn1 (stereo not drawn) [Compound 687, 1-{3-[1-(difluoromethyl)-4-pyrazolyl]-2-{4-[(2,4-difluorophenyl)methyl]-1-piperazinyl}-1,4,6-triaza-7-naphthyl}-2-methoxy-1-ethanol] | – | – | 0.1 to 1 µM | 1 to 30 µM | – |
| CC(C)S(=O)(=O)N1CCc2nc(N3CCC(Oc4ccc(F)cc4F)CC3)c(-c3cnn(C4CCCCO4)c3)nc2C1 (stereo not drawn) [Compound 176, 4-(2,4-difluorophenoxy)-1-{3-[1-(oxan-2-yl)-1H-pyrazol-4-yl]-6-(propane-2-sulfonyl)-5H,6H,7H,8H-pyrido[3,4-b]pyrazin-2-yl}piperidine] | 0.1 to 1 µM | 1 to 30 µM | – | – | – |
| Cn1cc(-c2nc3cnccc3nc2N2CCC(Cc3ccc(F)cc3F)CC2)cn1 [Compound 368, 4-[(2,4-difluorophenyl)methyl]-1-[3-(1-methyl-1H-pyrazol-4-yl)pyrido[3,4-b]pyrazin-2-yl]piperidine] | – | – | < 0.1 µM | 0.1 to 1 µM | – |
| CC(C)(O)C(O)c1cc2nc(-c3cn[nH]c3)c(N3CCC(=Cc4ccc(F)cc4F)CC3)nc2cn1 (stereo not drawn) [Compound 780, 1-(3-{4-[(2,4-difluorophenyl)methylene]-1-piperidyl}-2-(4-pyrazolyl)-1,4,6-triaza-7-naphthyl)-2-methyl-1,2-propanediol] | – | – | < 0.1 µM | 0.1 to 1 µM | – |
| CC(C)(O)C(O)c1cc2nc(-c3cnn(CF)c3)c(N3CCC(Oc4ccc(F)cc4F)CC3)nc2cn1 (single isomer, unassigned) [Compound 592] | – | – | – | – | IC50 ([1]; CHO cells stably expressing GPR6, cAMP assay): < 0.1 µM; IC50 ([2]; CHO cells stably expressing GPR3, cAMP assay): 0.1 to 1 µM |
| CC(=O)N1CCc2nc(N3CCN(Cc4ccc(Cl)cc4F)CC3)c(-c3cnn(C)c3)nc2C1 [Compound 348, 1-(2-{4-[(4-chloro-2-fluorophenyl)methyl]piperazin-1-yl}-3-(1-methyl-1H-pyrazol-4-yl)-5H,6H,7H,8H-pyrido[3,4-b]pyrazin-6-yl)ethan-1-one] | – | – | 0.1 to 1 µM | 1 to 30 µM | – |
| CC(=O)N1CCc2nc(N3CCC(Oc4ccc(F)cc4F)CC3)c(-c3cncnc3)nc2C1 [Compound 34, 1-{2-[4-(2,4-difluorophenoxy)piperidin-1-yl]-3-(pyrimidin-5-yl)-5H,6H,7H,8H-pyrido [3,4-b]pyrazin-6-yl}ethan-1-one] | – | – | – | – | IC50 [1, 5]: 1 to 30 µM; IC50 [2, 5]: 1 to 30 µM |
| CCn1cc(-c2nc3cnc(N)cc3nc2N2CCC(Oc3ccc(F)cc3F)CC2)cn1 [Compound 294, 2-[4-(2,4-difluorophenoxy)piperidin-1-yl]-3-(1-ethyl-1H-pyrazol-4-yl)pyrido[3,4-b]pyrazin-7-amine] | – | – | < 0.1 µM | 1 to 30 µM | – |
